Assay results from PMC11314561, “Design and Synthesis of Novel Aminoindazole-pyrrolo[2,3-b]pyridine Inhibitors of IKKα That Selectively Perturb Cellular Non-Canonical NF-κB Signalling” (Molecules, 2024).

Experiments:
JAK3(h) = molecular target: T1, JAK3(h) (Homo sapiens, UniProt P52333); test: kinase panel; type: biochemical
T1 sequence (P52333 1-1124): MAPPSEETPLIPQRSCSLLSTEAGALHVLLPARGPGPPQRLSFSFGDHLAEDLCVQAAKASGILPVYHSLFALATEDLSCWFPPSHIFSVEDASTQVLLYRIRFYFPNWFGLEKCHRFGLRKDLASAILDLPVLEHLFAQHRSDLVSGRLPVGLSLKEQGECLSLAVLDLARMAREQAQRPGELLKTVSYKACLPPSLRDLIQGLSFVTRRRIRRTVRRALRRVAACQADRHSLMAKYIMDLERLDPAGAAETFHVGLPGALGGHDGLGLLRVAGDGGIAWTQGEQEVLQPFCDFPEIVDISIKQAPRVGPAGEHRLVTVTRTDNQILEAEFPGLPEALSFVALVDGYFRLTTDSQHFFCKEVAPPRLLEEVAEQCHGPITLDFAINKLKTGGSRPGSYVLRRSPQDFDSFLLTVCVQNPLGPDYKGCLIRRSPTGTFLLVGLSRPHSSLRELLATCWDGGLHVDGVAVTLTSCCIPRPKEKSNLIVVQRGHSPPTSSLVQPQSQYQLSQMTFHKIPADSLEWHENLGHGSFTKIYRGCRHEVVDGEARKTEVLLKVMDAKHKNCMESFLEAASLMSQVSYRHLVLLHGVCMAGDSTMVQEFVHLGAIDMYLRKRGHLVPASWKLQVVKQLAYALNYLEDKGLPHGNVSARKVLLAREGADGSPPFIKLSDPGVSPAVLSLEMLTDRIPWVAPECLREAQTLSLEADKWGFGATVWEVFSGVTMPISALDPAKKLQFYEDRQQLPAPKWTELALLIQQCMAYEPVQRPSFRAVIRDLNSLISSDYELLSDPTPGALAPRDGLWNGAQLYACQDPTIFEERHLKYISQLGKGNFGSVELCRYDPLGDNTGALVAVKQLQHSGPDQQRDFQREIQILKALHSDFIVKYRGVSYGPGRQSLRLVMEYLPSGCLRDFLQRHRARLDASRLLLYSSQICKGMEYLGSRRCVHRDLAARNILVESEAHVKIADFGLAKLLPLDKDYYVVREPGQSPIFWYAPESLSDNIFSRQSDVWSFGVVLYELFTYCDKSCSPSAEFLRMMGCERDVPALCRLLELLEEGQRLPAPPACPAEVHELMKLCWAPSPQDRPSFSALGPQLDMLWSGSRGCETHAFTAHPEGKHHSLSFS
Procedure, shortened: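 Values are percent inhibition from kinome-wide profiling of three series compounds across 231 kinases, with a structurally similar analogue tested on only 98 selected kinases.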

[1] = system: IKKβ-mediated IκBα degradation in U2OS cells; test: TNFα-stimulated IκBα degradation, Western blotting; type: cell-based; settings: for effect on TNFα-stimulated IκBα degradation: 0.3–30 µM
Procedure: To assess the translation of the biochemical potencies and selectivities described above to a cell-based setting, exemplars from the series were initially examined for inhibitory action against IKKs in the U2OS osteosarcoma cell line. This cell type was utilised to represent cells with a proliferative phenotype dependent on the constitutively activated IKKα-mediated non-canonical NF-κB pathway. Compounds 5r [SU1261]
U2OS cells were cultured in McCoy’s 5A Modified Medium, and PC-3M-Luc-C6 prostate cancer cells were cultured in Minimum Essential Medium (MEM), each containing 10% (v/v) Foetal Calf Serum (FCS), L-glutamine ([…]), and penicillin/streptomycin (250 units/mL; 100 μg/mL) and incubated in a humidified atmosphere at 37 °C with 5% (v/v) CO2. Cells were grown to near confluence and prior to experimentation rendered quiescent by serum deprivation for 24 h.
To examine the potential impact of compounds on canonical NF-κB signalling, cells were then exposed to vehicle (DMSO; 0.05% (v/v)) or increasing concentrations of compounds (0.01–30 µM) for 1 h prior to treatment with TNF⍺ (20 ng/mL) for 30 min. Whole-cell extracts were prepared, and the status of IκB⍺, phospho-p65 (Ser536), p65, and phospho-p105 ([…]) was also assessed by Western blotting.
Each figure/panel of Western blotting data represents one of at least three separate experiments. Western blots were scanned and imaged using Adobe Photoshop 5.0.2 software and polypeptide bands were semi-quantified by scanning densitometry using the Scion Image program. Data were normalised to fold expression/inhibition relative to ‘agonist plus vehicle’ treatment and expressed as mean ± s.e.m. IC50 values were established by curve fitting using the Hill equation.
Figure 11 Compound 5r [SU1261] inhibits FCS-stimulated p100 phosphorylation (Ser866/870) with no impact on TNFα-stimulated IkBα degradation and limited impact on phosphorylation of p65 (Ser536) in U2OS osteosarcoma cells. […] (0.3–30 µM) for 1 h prior to treatment with FCS (10% (v/v)) for 4 h, and phospho-p100 (Ser866/870) was assessed by Western blotting. […]

inhibition at 1 µM (JAK3(h))	IC50 ([1]; Homo sapiens, 1 h pre-treatment, TNFα 30 min)	Structure (SMILES)	effect on TNFα-stimulated IκBα degradation [1]
30%	–	Nc1n[nH]c2ccc(-c3ccnc4[nH]c(-c5cccc(OCc6ccccc6)c5)cc34)cc12 [Compound 5r [SU1261]]	did not impact
18%	–	Nc1n[nH]c2ccc(-c3ccnc4[nH]c(-c5ccnc(OCc6ccccc6)c5)cc34)cc12 [Compound 6g [SU1349]]	no significant inhibition
76%	620 nM	Nc1n[nH]c2ccc(-c3ccnc4[nH]c(-c5ccccc5)cc34)cc12 [Compound 4]	–
